# What was measured:
# Swiss male mice [1] = experiment: Formalin Test in Mice: Late Phase; assay type: in vivo; conditions: Mus musculus, sc, subcutaneous, t=-10 min before formalin 5%
# Experimental: Formalin Test in Mice: Late Phase
# Swiss male mice (IFFA-CREDO) at 22±3 grams on test day.
# Room temperature: 24.5<T<24.8° C.
# t=-10 minutes. Subcutaneous administration of drug at 1 mL/100 g body weight. Either as a solution in distilled water or suspension in an aqueous solution of hydroxypropylmethylcellulose 0.2% (v/v).
# t=0 minutes. Formalin 5% in sterile saline (v/v) administered by intraplanatar injection (20 μL) into the left paw.
# t=+15 minutes. Mouse placed in cylinder.
# t=+25 minutes. Nociceptive reaction: number of times left paw is licked during the observation period.
# (§1) Results: Mean±sem per group
# (§2) Dunnett's test after analysis of variance (Anova one way).
# Reference: S. Hunskaar, Journal of Neuroscience Methods, 1985;14:69-76.
# [2] = Rotarod Test in Mice (ataxic reaction); assay type: in vivo, mouse; conditions: mouse, rotarod, sc; subcutaneous, t=-30 min
# Experimental: (§3) Swiss male mice (IFFA-CREDO) at 22±3 grams on the test day.
# (§4) Room temperature: 21.2±0.2° C.
# (§5) Rotarod (Ugobasile) at 18 rotations per minute.
# (§6) t=-180 minutes and t=-120 minutes: mice trained to stay on the bar at least 120 seconds before falling off.
# (§7) t=-30 minutes: Subcutaneous administration of drug at 1 mL/100 g body weight as either solution in distilled water or suspension in an aqueous solution of hydroxypropylmethylcellulose 0.2% (v/v).
# (§8) t=0 minutes: Ataxic reaction: time taken for mouse to fall off the rotarod (maximum time 120 seconds).
# as §1, §2
# Swiss male mice [3] = experiment: Rotarod Test in Mice (ataxic reaction); assay type: in vivo, mouse; conditions: subcutaneous, t=-30 min; ED50 of 10 mg/kg
# Experimental: as §3, §4, §5, §6, §7, §8, §1, §2
Structure (SMILES),ED50 (Swiss male mice [1]),ED50 at 0.5 h [2],Mouse Rotarod percent effect (in parentheses beside ED50) (Swiss male mice [3])
"CN(C(=O)Cc1cc2ccccc2o1)[C@H](CN1CCCC1)c1cccc(OCC(=O)O)c1 [Compound 15, (S)-(3-{1-[(Benzofuran-2-yl-acetyl)-methyl-amino]-2-pyrrolidin-1-yl-ethyl}-phenoxy)-acetic acid]",2.95 mg/kg,> 10 mg/kg,0%
"CN(C(=O)Cc1coc2ccccc12)[C@H](CN1CCCC1)c1cccc(OCC(=O)O)c1 [Compound 19, (S)-(3-{1-[(Benzofuran-3-yl-acetyl)-methyl-amino]-2-pyrrolidin-1-yl-ethyl}-phenoxy)-acetic acid]",1.17 mg/kg,> 10 mg/kg,0%
CN(C(=O)Cc1ccc(S(C)(=O)=O)cc1)[C@H](CN1CCCC1)c1cccc(OCC(=O)O)c1 [Compound 23],6.1 mg/kg,,
"CN(C(=O)Cc1coc2ccccc12)[C@H](CN1CC[C@H](O)C1)c1cccc(OCC(=O)O)c1 [Compound 28, [S-(R*,R*)]-{3-[1-[(Benzofuran-3-yl-acetyl)-methyl-amino]-2-(3-hydroxy-pyrrolidin-1-yl)-ethyl]-phenoxy}-acetic acid]",0.36 mg/kg,~10 mg/kg,53%
"CN(C(=O)Cc1cc2ccccc2o1)[C@H](CN1CC[C@H](O)C1)c1cccc(OCC(=O)O)c1 [Compound 33, [S-(R*,R*)]-{3-[1-[(Benzofuran-2-yl-acetyl)-methyl-amino]-2-(3-hydroxy-pyrrolidin-1-yl)-ethyl]-phenoxy}-acetic acid]",0.19 mg/kg,~10 mg/kg,53%
CN(C(=O)Cc1cccc2occc12)[C@H](CN1CC[C@H](O)C1)c1cccc(OCC(=O)O)c1 [Compound 38],0.95 mg/kg,> 10 mg/kg,0%
CN(C(=O)Cc1ccc(S(C)(=O)=O)cc1)[C@H](CN1CC[C@H](O)C1)c1cccc(OCC(=O)O)c1 [Compound 43],0.51 mg/kg,> 10 mg/kg,0%

# From patent publication US6057357A, “Peripherally selective kappa opioid agonists” (Warner-Lambert Company, priority 1999, dated 2000)
